Data from patent US4990520A, “2-,4- or 5-substituted thiazole derivatives” (American Cyanamid Company, priority 1990, dated 1991).
Structures can show the parent of a compound that is named as a salt.

Columns and labels:
[1] = molecular target: muscarinic cholinergic receptor; assay: [3H] Quinuclinyl Benzilate (3H-QNB) Binding Assay; set-up: species or system rat; conditions: pH 7.4
[2] = molecular target: high affinity agonist conformation of the muscarinic cholinergic receptor; assay: [3H]-Cis-methyldioxolane (3H-CD) Binding Assay (High Affinity); conditions: rat cerebral cortex, 1.0 nM 3H-CD, 25° C., 120 minutes, pH 7.4
postsynaptic cholinergic = conditions: cited from earlier work
presynaptic cholinergic = conditions: cited from earlier work
SDAT patients = conditions: versus anticholinesterase inhibitor physostigmine; cited from earlier work
[3] = rat cerebral cortex, 0.25 nM 3H-QNB, 25° C., 120 minutes
[4] = rat cerebral cortex, 0.25 nM 3H-QNB, 25° C., 120 minutes, hydrochloride

Row | Compound | IC50 [1, 3] [µM] | IC50 [2] [µM] | also measured
1 | 1-[3-(5-Thiazolyl)-2-propenyl]piperidine | 164 | 12.6 | –
2 | Cl/C(=C/c1nccs1)CN1CCCCC1 [1-[2-Chloro-3-(2-thiazolyl)-2-propenyl]piperidine,(E)] | 117 | 6.59 | –
3 | C(#Cc1nccs1)CN1CCCCC1 [1-[3-(2-Thiazolyl)-2-propynyl]piperidine] | 182 | 10.2 | –
4 | C(#Cc1cscn1)CN1CCCCC1 [1-[3-(4-Thiazolyl)-2-propynyl]piperidine, hydrochloride] | – | – | IC50 [1, 4]: 114 µM; IC50 ([2]; hydrochloride): 14 µM
5 | C(#Cc1cscn1)CN1CCCCC1 [1-[3-(4-Thiazolyl)-2-propynyl]piperidine] | 124 | 28.1 | –
6 | C(#Cc1cncs1)CN1CCCCC1 [1-[3-(5-Thiazolyl)-2-propynyl]piperidine, hydrochloride] | 119 | 0.658 | –
7 | CN(C)C/C(Cl)=C\c1nccs1 [2-Chloro-N,N-dimethyl-3-(2-thiazolyl)-2-propen-1-amine,(E)] | 222 | 1.07 | –
8 | Br/C(=C/c1nccs1)CN1CCCC1 [2-[2-Bromo-3-(1-pyrrolidinyl)-1-propenyl]thiazole,(E)] | 90 | – | –
9 | Cl/C(=C/c1nccs1)CN1CCCC1 [2-[2-Chloro-3-(1-pyrrolidinyl)-1-propenyl]thiazole,(E)] | 186 | 2.23 | –
10 | C(#Cc1nccs1)CN1CCCC1 [2-[3-(1-Pyrrolidinyl)-1-propynyl]thiazole] | 44 | 1.43 | –
11 | C(#Cc1cscn1)CN1CCCC1 [4-[3-(1-Pyrrolidinyl)-1-propynyl]thiazole] | 71 | 3.95 | –
12 | C(#Cc1cncs1)CN1CCCC1 [5-[3-(1-Pyrrolidinyl)-1-propynyl] thiazole] [5-[3-(1-Pyrrolidinyl)-1-propynyl]thiazole] | 115 | 4.7 | –
13 | C(#Cc1cncs1)CN1CCCC1 [5-[3-(1-Pyrrolidinyl)-1-propynyl]thiazole] | 73 | 0.245 | –
14 | CN(C)CC#Cc1cscn1 [--N, --N-Dimethyl-3-(4-thiazolyl)-2-propyn-1-amine] [N,N-Dimethyl-3-(4-thiazolyl)-2-propyn-1-amine] | 504 | 12.9 | –
15 | CN(C)CC#Cc1cscn1 [--N, --N-Dimethyl-3-(4-thiazoyl)-2-propyn-1-amine] [N,N-Dimethyl-3-(4-thiazoyl)-2-propyn-1-amine] | 381 | 19 | –
16 | CC(=O)N(C)C(C)C#CCN1CCCC1 (stereo not shown) [BM-5, N-methyl-N-(1-methyl-4-pyrrolidino-2-butynyl) acetamide] | – | – | postsynaptic cholinergic activity (postsynaptic cholinergic): postsynaptic partial cholinergic agonist; presynaptic cholinergic activity (presynaptic cholinergic): presynaptic cholinergic antagonist
17 | C[N+](C)(C)CC#Cc1nccs1 [N,N,N-Trimethyl-3-(2-thiazolyl)-2-propyn-1-aminium iodide] | – | 0.673 | IC50 [1]: 123 µM
18 | C[N+](C)(C)CC#Cc1cscn1 [N,N,N-Trimethyl-3-(4-thiazolyl)-2-propyn-1-aminium, iodide] | – | 1.46 | IC50 [1]: 119 µM
19 | C[N+](C)(C)CC#Cc1cncs1 [N,N,N-Trimethyl-3-(5-thiazolyl)-2-propyn-1-aminium iodide] | 131 | 0.273 | –
20 | CN(C)CC#Cc1nccs1 [N,N-Dimethyl-3-(2-thiazolyl)-2-propyn-1-amine] | 1310 | 9.98 | –
21 | CN(C)CC#Cc1cncs1 [N,N-Dimethyl-3-(5-thiazolyl)-2-propyn-1-amine, hydrochloride] | – | – | IC50 [1, 4]: 482 µM
22 | CN(C)CC#Cc1cncs1 [N,N-Dimethyl-3-(5-thiazolyl)-2-propyn-1-amine] | 765 | 3.38 | –
23 | COC(=O)C1=CCCN(C)C1 [arecoline] | – | – | improvement when compared to physostigmine (SDAT patients): more-consistent improvement
